Laboratory results published in the Deep4Chem optical property database.
Blank lines part the entries; values can stand above or below the compound they belong to.

Experiment: solvent given as SMILES

Compound: CC(C)c1cccc(C(C)C)c1N1C(=O)c2cccc3c(Oc4ccccc4)ccc(c23)C1=O
emission maximum (in ClCCl): 425 nm

Compound: N#Cc1c(N2CCCCC2)cc(-c2cccc3ccccc23)c2c1CCc1ccccc1-2
emission maximum (in C1CCOC1): 465 nm

Compound: Cc1cc(C)c(B(c2ccc(N(c3ccccc3)c3ccccc3)cc2)c2c(C)cc(C)cc2C)c(C)c1
emission maximum (in Cc1ccccc1): 437 nm

Compound: CN(C)c1ccc(-c2nc(-c3ccc(N(C)C)cc3)c3ccccc3n2)cc1
emission maximum (in C1CCCCC1): 436 nm
emission maximum (in C1CCOC1): 528 nm
emission maximum (in CC#N): 571 nm
emission maximum (in CS(C)=O): 575 nm
emission maximum (in ClCCl): 530 nm

Compound: CCCCCCN(CCCCCC)c1ccc(C#Cc2ccc([N+](=O)[O-])cc2)cc1
emission maximum (in CO): 630 nm
emission maximum (in ClCCl): 618 nm

Compound: CCCCN1/C(=C\c2c(-c3ccc(N(C)C)cc3)c(=O)c2=O)C=Cc2ccccc21
emission maximum (in C1CCCCC1): 428 nm
emission maximum (in Cc1ccccc1): 435 nm
emission maximum (in ClCCl): 585 nm

Compound: CCCC1=Cc2nc1ccc1[nH]c(cc1CCOC)c1nc(ccc3[nH]c2cc3CCC)C(CCOC)=C1
emission maximum (in Cc1ccccc1): 642 nm

Compound: Cc1ccc(C2=Cc3c4ccccc4c4ccccc4[n+]3[B-](F)(F)O2)cc1
emission maximum (in ClC(Cl)Cl): 450 nm

Compound: CC1=CC(C)=[N+]2C1=C(c1ccccc1)c1c(C)cc(/C=C/c3ccc(N(C)C)cc3)n1[B-]2(F)F
emission maximum (in CCOCC): 638 nm

Compound: CC[N+]1(CC)CN2C(=N1)C(C(=O)O)=Cc1c2ccc2ccccc12
emission maximum (in O): 487 nm

Compound: c1ccc(N(c2ccccc2)c2ccc(-n3ccc4cc(-c5ccc6c(c5)C(c5ccccc5)(c5ccccc5)c5ccccc5-6)ccc43)cc2)cc1
emission maximum (in ClCCl): 380 nm

Compound: COc1ccc(OC)c(C(=O)O)c1
emission maximum (in CO): 388 nm

Compound: COc1ccc(-c2c3ccccc3c(C#Cc3ccccc3)c3cc4ccccc4cc23)cc1
emission maximum (in ClCCl): 550 nm

Compound: N#CC1=c2c3cccc4cccc(c43)n2[B-](F)(F)[n+]2ccccc21
emission maximum (in C1CCOC1): 530 nm
emission maximum (in CC#N): 527 nm
emission maximum (in CCCCCC): 530 nm
emission maximum (in Cc1ccccc1): 535 nm
emission maximum (in ClCCl): 530 nm

Compound: Cc1cccc2cc(-c3cc4cccc(C)c4oc3=O)oc12
emission maximum (in CC#N): 451 nm
emission maximum (in CCOC(C)=O): 436 nm
emission maximum (in CS(C)=O): 456 nm
emission maximum (in Cc1ccccc1): 436 nm
emission maximum (in O): 488 nm

Compound: COc1ccc(-c2c3ccccc3c(-c3ccc(OC)cc3)c3ccccc23)cc1
emission maximum (in ClCCl): 427 nm

Compound: CC1=CC(C)=[N+]2C1=C(c1ccc(-c3ccc(OS(=O)(=O)c4ccc([N+](=O)[O-])cc4[N+](=O)[O-])cc3)s1)c1c(C)cc(C)n1[B-]2(F)F
emission maximum (in CO): 523 nm
emission maximum (in Cc1ccccc1): 530 nm
emission maximum (in ClCCl): 528 nm

Compound: CC1(C)c2ccccc2N(c2ccccc2)c2ccc(-c3ccc(-c4ccc5c(c4)C(C)(C)c4ccccc4N5c4ccccc4)c4nsnc34)cc21
emission maximum (in Cc1ccccc1): 596.02 nm
emission maximum (in c1ccc2c(c1)c1ccccc1n2-c1ccc(-c2ccc(-n3c4ccccc4c4ccccc43)cc2)cc1): 588 nm

Compound: NS(=O)(=O)c1ccc(N2N=C(c3ccc(O)cc3)CC2c2ccc(Br)cc2)cc1 (configuration not stated)
emission maximum (in C1CCOC1): 417 nm
emission maximum (in C1COCCO1): 417 nm
emission maximum (in CC#N): 417 nm
emission maximum (in CC(C)O): 423 nm
emission maximum (in CCO): 428 nm
emission maximum (in CCOC(C)=O): 415 nm
emission maximum (in CN(C)C=O): 422 nm
emission maximum (in CO): 432 nm
emission maximum (in CS(C)=O): 424 nm
emission maximum (in O): 449 nm

Compound: Cc1ccc(C2=C3C=CC(C#Cc4ccccc4)=[N+]3[B-](F)(F)n3c(C#Cc4ccccc4)ccc32)cc1
emission maximum (in C1CCCCC1): 626 nm
emission maximum (in C1CCOC1): 625 nm
emission maximum (in C1COCCO1): 626 nm
emission maximum (in CCOC(C)=O): 621 nm
emission maximum (in CO): 622 nm
emission maximum (in Cc1ccccc1): 629 nm
emission maximum (in ClC(Cl)Cl): 628 nm
emission maximum (in ClCCl): 628 nm

Compound: Cc1cc(C)cc(C)c1
emission maximum (in C1CCCCC1): 294.72 nm

Compound: CCn1c2ccccc2c2ccc(-c3ccc(OC)cc3)cc21
emission maximum (in C1CCCCC1): 383 nm

Compound: COC(=O)/C(C#N)=c1\s/c(=c2/s/c(=C(/C#N)C(=O)OC)c3cc(-c4ccc(OC)cc4)sc23)c2sc(-c3ccc(OC)cc3)cc12
emission maximum (in Cc1ccccc1): 680 nm

Compound: CCCCC(CC)COc1ccc2nc(-c3ccc(-c4cccs4)s3)sc2c1 (configuration not stated)
emission maximum (in ClCCl): 438 nm

Compound: O=S1(=O)C2=C(c3ccccc31)C1(c3ccccc32)c2ccccc2-c2sc3ccccc3c21 (configuration not stated)
emission maximum (in ClCCl): 459 nm

Compound: Nc1ccc(C#Cc2ccc3ccc4ccc(C#Cc5ccc(NS(=O)(=O)c6ccc([N+](=O)[O-])cc6[N+](=O)[O-])cc5)c5ccc2c3c45)cc1
emission maximum (in CO): 552 nm

Further lines, results first:

emission maximum (in O): 400 nm
Compound: C[NH+](C)c1c2ccccc2cc2ccccc12

emission maximum (in C1CCCCC1): 486 nm
emission maximum (in C1CCOC1): 509 nm
emission maximum (in C1COCCO1): 509 nm
emission maximum (in CC#N): 514 nm
emission maximum (in CCCCCC): 487 nm
emission maximum (in CO): 503 nm
emission maximum (in ClC(Cl)Cl): 501 nm
Compound: F[B-]1(F)n2c(-c3ccccc3)cnc2-c2cccc[n+]21

emission maximum (in ClCCl): 494 nm
Compound: CC(C)(C)c1ccc2c(c1)c1cc(C(C)(C)C)ccc1n2-c1ccc(N(c2ccc(-c3ccc(-c4ccc(-c5ccc(N(c6ccc(-n7c8ccc(C(C)(C)C)cc8c8cc(C(C)(C)C)ccc87)cc6)c6ccc(-n7c8ccc(C(C)(C)C)cc8c8cc(C(C)(C)C)ccc87)cc6)cc5)s4)s3)cc2)c2ccc(-n3c4ccc(C(C)(C)C)cc4c4cc(C(C)(C)C)ccc43)cc2)cc1

emission maximum (in C1COCCO1): 546 nm
emission maximum (in CC#N): 550 nm
emission maximum (in CCO): 550 nm
emission maximum (in CCOC(C)=O): 544 nm
emission maximum (in O): 560 nm
Compound: CN1C(=O)/C(=C/c2ccncc2)N=C1/C=C/c1ccccc1

emission maximum (in C1CCOC1): 423 nm
Compound: Cc1ccc(/C=C/C(F)(F)F)c(N)c1

emission maximum (in CS(C)=O): 417 nm
emission maximum (in O): 430 nm
Compound: Cn1c2ccccc2c(=O)c2ccccc21

emission maximum (in C1CCCCC1): 482 nm
emission maximum (in CC#N): 509 nm
emission maximum (in CO): 500 nm
emission maximum (in ClCCl): 495 nm
emission maximum (in O): 512 nm
Compound: CN(C)c1ccc(-c2nc(-c3ccccc3)c3ccccn23)cc1

emission maximum (in ClCCl): 478 nm
Compound: O=c1c2cc(C#Cc3ccc(Cl)cc3)ccc2nc2ccc(C#Cc3ccc(Cl)cc3)cn12

emission maximum (in C1COCCO1): 442 nm
emission maximum (in CC#N): 441 nm
emission maximum (in CCCCOCCCC): 441 nm
emission maximum (in CCOC(C)=O): 440 nm
Compound: c1ccc(Nc2nc(Nc3ccccc3)nc(Nc3ccc4cc5ccccc5cc4c3)n2)cc1

emission maximum (in C1CCOC1): 403 nm
emission maximum (in C1COCCO1): 412 nm
emission maximum (in CC#N): 408 nm
emission maximum (in CCCCCC): 392 nm
emission maximum (in CCO): 419 nm
emission maximum (in CN(C)C=O): 423 nm
emission maximum (in CO): 418 nm
emission maximum (in CS(C)=O): 427 nm
emission maximum (in ClC(Cl)Cl): 415 nm
emission maximum (in ClCCl): 411 nm
Compound: COc1ccc2c(c1)CCc1c-2nc(N)c(C#N)c1-c1ccc(Br)cc1

emission maximum (in ClCCl): 523 nm
Compound: CCCCCCCCCCCCN1C(=O)c2c(c3ccc4cc(-c5ccc(C=O)cc5)c(OC)cc4c3c3c2ccc2cc(-c4ccc(C=O)cc4)c(OC)cc23)C1=O

emission maximum (in CS(C)=O): 450 nm
Compound: Cc1ccc(C2C(C#N)=C(N)n3c(=O)c4ccccc4c(=O)n32)cc1 (configuration not stated)

emission maximum (in ClCCl): 563 nm
Compound: CCC1=C(CC)c2cccc3c2c(cc2nc4ccccc4nc23)O1

emission maximum (in ClC(Cl)Cl): 425 nm
Compound: CCCCCCc1sc(CCCCCC)c2c3ccsc3c3sccc3c12

emission maximum (in CS(C)=O): 414 nm
Compound: CCCCCCCCn1c2ccccc2c(=O)c2ccccc21

emission maximum (in C1CCCCC1): 526 nm
emission maximum (in ClC(Cl)Cl): 683 nm
Compound: CN(C)c1ccc2nc(-c3ccc(C=C(C#N)C#N)cc3)sc2c1

emission maximum (in CC1CCCCC1): 650 nm
Compound: c12c3c4c5c1c1c6c7c2c2c8c3c3c9c4c4c%10c5c5c1c1c6c6c%11c%12c%13c%14c%15c%16c%17c%14c%14c%18c%13c%11c1c1c5c%10c5c(c%14c%10c%17c%11c%13c%16c%14c%16c%15c%12c%12c%16c(c2c7c%126)c2c8c3c(c%13c%142)c2c9c4c5c%10c%112)c%181

emission maximum (in CC#N): 388 nm
emission maximum (in CCCCOCCCC): 389 nm
emission maximum (in CO): 387 nm
Compound: CC(=O)Nc1cc2ccc3cccc4ccc(c1)c2c34

emission maximum (in CC#N): 364 nm
Compound: O=c1ccc2ccc(C#Cc3ccccc3)cc2o1

emission maximum (in C1CCCCC1): 632 nm
emission maximum (in CCOC(C)=O): 662 nm
Compound: CC1=[N+]2C(=C(Oc3cc(C)c4c(c3)CC[C@@](C)(CCC[C@H](C)CCC[C@H](C)CCCC(C)C)O4)c3ccc(C)n3[B-]2(F)F)C=C1c1cc2n(c1)[B-](F)(F)[N+]1=CC=CC1=C2c1c(C)cc(C)cc1C

emission maximum (in C1CCOC1): 574 nm
Compound: FC(F)(F)C(F)(F)C(F)(F)c1nc2c(-c3ccsc3)cc3c4cc(-c5ccsc5)c5nc(C(F)(F)C(F)(F)C(F)(F)F)nc6c(-c7ccsc7)cc(c7cc(-c8ccsc8)c(n1)c2c37)c4c56

emission maximum (in ClCCl): 498 nm
Compound: CCCCCCc1cc2c3c(c1)c(=C1c4ccccc4Sc4ccccc41)c1cc(CCCCCC)cc4c1N3c1c(cc(CCCCCC)cc1c4=C1c3ccccc3Sc3ccccc31)c2=C1c2ccccc2Sc2ccccc21

emission maximum (in CS(C)=O): 520 nm
Compound: COc1ccc(-c2cc(/C=C/c3ccc(N(c4ccccc4)c4ccccc4)cc3)c(C#N)c(N3CCCCC3)c2)cc1

emission maximum (in C1CCOC1): 512 nm
emission maximum (in CC#N): 542 nm
emission maximum (in CCO): 525 nm
emission maximum (in CS(C)=O): 547 nm
Compound: CCOC(=O)c1ccccc1-c1c2ccc(=O)cc-2oc2cc(OC(=O)[C@H](CO[Si](C)(C)C(C)(C)C)NC(=O)OC(C)(C)C)ccc12

emission maximum (in C1CCCCC1): 371 nm
Compound: B1C=Cc2ccc3ccccc3c2N1

emission maximum (in ClC(Cl)Cl): 696 nm
Compound: COc1ccc(N(c2ccc(OC)cc2)c2ccc(-c3ccc(C=C(C#N)C#N)o3)cc2)cc1

emission maximum (in CCO): 576 nm
emission maximum (in ClCCl): 566 nm
emission maximum (in O): 595 nm
Compound: O=Cc1ccc(-c2cccc(-c3nc4ccccc4s3)c2O)s1

emission maximum (in ClC(Cl)Cl): 386 nm
Compound: O=C1[C@@H]2[C@H](C(=O)N1c1ccc3cc4ccccc4cc3c1)[C@@H]1C=C[C@H]2C1

emission maximum (in O): 397 nm
Compound: Cc1ccc2c(c1)n(C)c(-c1ccc(-c3ccc(-c4ccc(-c5n(C)c6cc(C)ccc6[n+]5C)cc4)cc3)cc1)[n+]2C

emission maximum (in ClC(Cl)Cl): 453 nm
Compound: CCCCCCc1ccc(-n2c3c4cccc(OC)c4nc(-c4ccc(OC)cc4)c3c3c2c2c(-c4ccc(OC)cc4)nc4c(OC)cccc4c2n3-c2ccc(CCCCCC)cc2)cc1

emission maximum (in ClCCl): 455 nm
Compound: CC(C)[Si](C#Cc1ccc(C#C[Si](C(C)C)(C(C)C)C(C)C)c2nc3c4ccccc4c(=O)c4ccccc4c3nc12)(C(C)C)C(C)C
